One block for each compound: values may come before it. Activity calls are given as the source filed them. The calls are words filed in the database; no cut-off is given here.
Columns and labels:
[1] = test system: RAW264.7; assay: Antiinflammatory activity against mouse RAW264.7 cells assessed as decrease in cholesterol-methyl-beta-cyclodextrin-induced TNFalpha release; type: functional, cell-based
[2] = Cytotoxicity against mouse RAW264.7 cells after 48 hrs by MTT assay; type: cell-based; conditions: read-out: LC50
[3] = biological target: NPC1-like intracellular cholesterol transporter 1 (Mus musculus) (UniProt Q6T3U4); assay: Inhibition of NPC1L1-mediated cholesterol-methyl-beta-cyclodextrin accumulation in mouse RAW264.7 cells assessed as decrease in foam cell formation by measuring decrease in MDA level; type: cell-based
[4] = test system: RAW264.7; assay: Antiinflammatory activity against mouse RAW264.7 cells assessed as decrease in cholesterol-methyl-beta-cyclodextrin-induced ROS level at 30 uM relative to control; type: functional; set-up: scale not given: the % may be the effect or the level left
[5] = biological target: NPC1-like intracellular cholesterol transporter 1 (Mus musculus) (UniProt Q6T3U4); assay: Inhibition of NPC1L1 in mouse RAW264.7 cells assessed as decrease in choleserol-D7 absorption at 30 uM after 72 hrs by LC-MS/MS analysis relative to control; type: cell-based
[6] = biological target: T1, NPC1-like intracellular cholesterol transporter 1 (Homo sapiens) (UniProt Q9UHC9); assay: Inhibition of NPC1L1 in human Caco2 cells assessed as decrease in cholesterol uptake at 100 uM preincubated for 24 hrs followed by stigmosterol substrate addition measured after 24 hrs by HPLC method; type: cell-based
T1 sequence (whole entry): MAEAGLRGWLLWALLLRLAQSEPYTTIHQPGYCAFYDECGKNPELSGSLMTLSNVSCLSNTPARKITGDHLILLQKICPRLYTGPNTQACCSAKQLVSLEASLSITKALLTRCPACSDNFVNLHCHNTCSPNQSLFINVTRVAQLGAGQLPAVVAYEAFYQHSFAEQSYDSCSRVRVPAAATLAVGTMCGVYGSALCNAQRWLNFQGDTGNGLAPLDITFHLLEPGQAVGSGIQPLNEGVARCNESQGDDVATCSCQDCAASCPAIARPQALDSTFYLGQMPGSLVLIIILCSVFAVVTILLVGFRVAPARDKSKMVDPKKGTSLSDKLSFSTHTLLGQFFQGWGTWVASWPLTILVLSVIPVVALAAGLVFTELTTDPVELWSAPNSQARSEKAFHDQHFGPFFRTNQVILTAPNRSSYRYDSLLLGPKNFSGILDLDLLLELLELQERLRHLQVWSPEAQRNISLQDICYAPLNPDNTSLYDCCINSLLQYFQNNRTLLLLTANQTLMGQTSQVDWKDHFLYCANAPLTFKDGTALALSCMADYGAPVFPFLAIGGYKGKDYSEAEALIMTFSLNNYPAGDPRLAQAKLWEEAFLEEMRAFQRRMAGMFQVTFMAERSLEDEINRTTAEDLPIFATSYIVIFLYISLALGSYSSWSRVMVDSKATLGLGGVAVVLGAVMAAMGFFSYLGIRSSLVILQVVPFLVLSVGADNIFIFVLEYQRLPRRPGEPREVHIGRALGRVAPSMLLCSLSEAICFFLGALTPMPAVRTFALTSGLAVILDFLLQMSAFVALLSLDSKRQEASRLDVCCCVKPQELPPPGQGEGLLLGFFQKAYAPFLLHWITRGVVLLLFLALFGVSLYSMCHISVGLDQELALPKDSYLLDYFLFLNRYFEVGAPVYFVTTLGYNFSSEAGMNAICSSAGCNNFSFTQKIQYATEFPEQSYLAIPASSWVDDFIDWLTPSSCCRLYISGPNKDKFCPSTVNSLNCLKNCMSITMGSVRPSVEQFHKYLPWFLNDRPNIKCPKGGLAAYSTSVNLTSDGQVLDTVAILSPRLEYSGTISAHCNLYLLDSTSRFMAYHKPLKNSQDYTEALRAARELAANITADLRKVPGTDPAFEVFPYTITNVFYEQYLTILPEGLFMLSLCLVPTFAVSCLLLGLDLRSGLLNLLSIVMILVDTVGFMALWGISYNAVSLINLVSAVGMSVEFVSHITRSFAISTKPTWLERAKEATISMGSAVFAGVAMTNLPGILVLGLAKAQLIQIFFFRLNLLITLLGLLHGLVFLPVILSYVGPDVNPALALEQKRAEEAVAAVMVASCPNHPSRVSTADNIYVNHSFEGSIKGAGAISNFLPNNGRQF

[7] = test system: RAW264.7; assay: Antiinflammatory activity against mouse RAW264.7 cells assessed as decrease in cholesterol-methyl-beta-cyclodextrin-induced TNFalpha release at 30 uM relative to control; type: functional; set-up: scale not given: the % may be the effect or the level left
[8] = biological target: NPC1-like intracellular cholesterol transporter 1 (Mus musculus) (UniProt Q6T3U4); assay: Inhibition of NPC1L1-mediated cholesterol-methyl-beta-cyclodextrin accumulation in mouse RAW264.7 cells incubated for 72 hrs by Oil Red O/hematoxyline staining based microscopic analysis; type: cell-based
[9] = Cytotoxicity against HEK293 cells after 48 hrs by MTT assay; type: cell-based; conditions: human, read-out: LC50
[10] = biological target: NPC1-like intracellular cholesterol transporter 1 (Mus musculus) (UniProt Q6T3U4); assay: Inhibition of NPC1L1-mediated cholesterol-methyl-beta-cyclodextrin accumulation in mouse RAW264.7 cells assessed as decrease in foam cell formation by measuring decrease in LDH level at 30 uM relative to control; type: cell-based; set-up: scale not given: the % may be the effect or the level left
[11] = biological target: NPC1-like intracellular cholesterol transporter 1 (Mus musculus) (UniProt Q6T3U4); assay: Inhibition of NPC1L1-mediated cholesterol-methyl-beta-cyclodextrin accumulation in mouse RAW264.7 cells assessed as decrease in foam cell formation by measuring decrease in LDH level; type: cell-based
[12] = test system: RAW264.7; assay: Antiinflammatory activity against mouse RAW264.7 cells assessed as decrease in cholesterol-methyl-beta-cyclodextrin-induced ROS level; type: functional, cell-based
[13] = Octanol-water partition coefficient, log P of the compound measured after 4 hrs by HPLC analysis; type: physicochemical
[14] = biological target: NPC1-like intracellular cholesterol transporter 1 (Mus musculus) (UniProt Q6T3U4); assay: Inhibition of NPC1L1-mediated cholesterol-methyl-beta-cyclodextrin accumulation in mouse RAW264.7 cells assessed as decrease in foam cell formation by measuring decrease in MDA level at 30 uM relative to control; type: cell-based; set-up: scale not given: the % may be the effect or the level left
[15] = biological target: T1, NPC1-like intracellular cholesterol transporter 1 (Homo sapiens); assay: Inhibition of NPC1L1 in human Caco2 cells assessed as decrease in cholesterol uptake at 100 uM preincubated for 24 hrs followed by stigmosterol substrate addition measured after 24 hrs by HPLC method relative to control; type: cell-based

NPC1-like intracellular cholesterol transporter 1 (Mus musculus), sequence (Q6T3U4 21-1333 limits assumed): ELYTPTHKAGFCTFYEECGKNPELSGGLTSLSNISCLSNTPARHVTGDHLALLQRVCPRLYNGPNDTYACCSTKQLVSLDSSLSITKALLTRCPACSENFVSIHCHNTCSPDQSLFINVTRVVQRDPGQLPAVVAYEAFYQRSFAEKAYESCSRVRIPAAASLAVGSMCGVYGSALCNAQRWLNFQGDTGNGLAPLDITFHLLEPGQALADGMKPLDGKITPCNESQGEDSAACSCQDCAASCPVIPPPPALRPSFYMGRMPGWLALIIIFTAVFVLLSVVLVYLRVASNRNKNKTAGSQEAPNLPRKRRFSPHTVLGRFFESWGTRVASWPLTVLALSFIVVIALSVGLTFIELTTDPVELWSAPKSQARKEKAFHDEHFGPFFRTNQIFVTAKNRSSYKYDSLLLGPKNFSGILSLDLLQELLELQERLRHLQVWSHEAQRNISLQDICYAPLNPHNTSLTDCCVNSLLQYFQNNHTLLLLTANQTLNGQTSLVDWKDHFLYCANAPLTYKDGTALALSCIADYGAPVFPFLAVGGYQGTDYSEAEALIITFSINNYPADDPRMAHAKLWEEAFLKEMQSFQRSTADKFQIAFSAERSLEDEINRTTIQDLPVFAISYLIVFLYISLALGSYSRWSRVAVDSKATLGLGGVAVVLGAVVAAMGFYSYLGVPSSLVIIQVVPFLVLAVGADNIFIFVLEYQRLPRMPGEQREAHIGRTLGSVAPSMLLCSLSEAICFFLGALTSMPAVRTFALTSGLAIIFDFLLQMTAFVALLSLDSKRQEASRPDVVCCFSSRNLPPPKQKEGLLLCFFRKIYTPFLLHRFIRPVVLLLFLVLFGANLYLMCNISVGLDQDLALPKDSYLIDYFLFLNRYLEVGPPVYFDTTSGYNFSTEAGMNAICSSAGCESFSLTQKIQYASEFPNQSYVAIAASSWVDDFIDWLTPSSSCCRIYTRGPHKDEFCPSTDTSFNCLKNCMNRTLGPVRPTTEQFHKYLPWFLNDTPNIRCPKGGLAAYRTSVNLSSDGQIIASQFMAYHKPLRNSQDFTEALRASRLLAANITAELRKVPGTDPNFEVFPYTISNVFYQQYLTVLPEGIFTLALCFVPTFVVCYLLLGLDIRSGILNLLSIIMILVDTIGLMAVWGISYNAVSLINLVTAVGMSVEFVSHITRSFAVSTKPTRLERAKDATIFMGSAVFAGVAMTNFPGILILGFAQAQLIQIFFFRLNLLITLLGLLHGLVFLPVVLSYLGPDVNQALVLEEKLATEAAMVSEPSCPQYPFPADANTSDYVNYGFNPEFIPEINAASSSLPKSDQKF

SMILES: O=C1C(c2ccc(O)cc2)=C(c2ccc(F)cc2)C(=O)N1CCC(O)(c1ccccc1)c1ccccc1
Activity [1]: Dose-dependent effect
CC50 at 48 h [2]: > 100 µM
inhibition [3]: Dose-dependent effect
Activity [4]: 51%
inhibition [5]: 67.9%
inhibition [6]: Active
Activity [7]: 35.1%
inhibition [8]: Dose-dependent effect
CC50 at 48 h [9]: > 100 µM
Activity [10]: 33.3%
inhibition [11]: Dose-dependent effect
Activity [12]: Dose-dependent effect
logP at 4 h [13]: 2 to 4
Activity [14]: 79.6%

SMILES: CCN(CC)CCOc1ccc(C2=C(c3ccc(F)cc3)C(=O)N(CCC(O)(c3ccccc3)c3ccccc3)C2=O)cc1
inhibition [15]: 69.6 to 72.6%
CC50 at 48 h [2]: 32.7 µM
CC50 at 48 h [9]: 31.5 µM
logP at 4 h [13]: > 5

SMILES: O=C1C(c2ccc(O)cc2)=C(c2ccc(F)cc2)C(=O)N1CCCNS(=O)(=O)c1ccc(C(F)(F)F)cc1
CC50 at 48 h [2]: 34.3 µM
inhibition [6]: Active
CC50 at 48 h [9]: 19.7 µM
logP at 4 h [13]: 2 to 4

SMILES: CCc1ccc(S(=O)(=O)NCCCN2C(=O)C(c3ccc(O)cc3)=C(c3ccc(F)cc3)C2=O)cc1
CC50 at 48 h [2]: 17.2 µM
inhibition [6]: Active
CC50 at 48 h [9]: 11.5 µM
logP at 4 h [13]: 2 to 4

SMILES: O=C1[C@H](CC[C@H](O)c2ccc(F)cc2)[C@@H](c2ccc(O)cc2)N1c1ccc(F)cc1 [EZETIMIBE]
inhibition [15]: 51.3%
CC50 at 48 h [2]: 44.2 µM
Activity [4]: 46.5%
inhibition [5]: 80.3%
Activity [7]: 30.9%
inhibition [8]: Dose-dependent effect
CC50 at 48 h [9]: 57.6 µM
Activity [10]: 36.4%
Activity [14]: 76.3%

SMILES: O=C1C(c2ccc(O)cc2)=C(c2ccc(F)cc2)C(=O)N1CCCNS(=O)(=O)c1ccc(OC(F)(F)F)cc1
CC50 at 48 h [2]: 41.2 µM
inhibition [6]: Active
CC50 at 48 h [9]: 24.8 µM
logP at 4 h [13]: 2 to 4

SMILES: CCc1ccc(S(=O)(=O)NCCCCN2C(=O)C(c3ccc(F)cc3)=C(c3ccc(OCC(=O)NCC(=O)NCC(=O)O)cc3)C2=O)cc1
CC50 at 48 h [2]: > 100 µM
inhibition [6]: Active
CC50 at 48 h [9]: > 100 µM
logP at 4 h [13]: 2 to 4

inhibition [6]: inactive
SMILES: O=C1C(c2ccc(F)cc2)=C(c2ccc(OCCS(=O)(=O)O)cc2)C(=O)N1CCC(O)(c1ccccc1)c1ccccc1

SMILES: Cc1ccc(S(=O)(=O)NCCCCN2C(=O)C(c3ccc(F)cc3)=C(c3ccc(OCC(=O)NCC(=O)NCC(=O)O)cc3)C2=O)cc1
CC50 at 48 h [2]: > 100 µM
inhibition [6]: Active
CC50 at 48 h [9]: > 100 µM
logP at 4 h [13]: 2 to 4

inhibition [6]: inactive
SMILES: O=C1C(c2ccc(F)cc2)=C(c2ccc(OCCCCS(=O)(=O)O)cc2)C(=O)N1CCC(O)(c1ccccc1)c1ccccc1

SMILES: CCN(CC)CCCOc1ccc(C2=C(c3ccc(F)cc3)C(=O)N(CCC(O)(c3ccccc3)c3ccccc3)C2=O)cc1
inhibition [15]: 69.6 to 72.6%
CC50 at 48 h [2]: 37.6 µM
CC50 at 48 h [9]: 32.7 µM
logP at 4 h [13]: > 5

SMILES: CCN(CC)CCCCOc1ccc(C2=C(c3ccc(F)cc3)C(=O)N(CCC(O)(c3ccccc3)c3ccccc3)C2=O)cc1
inhibition [15]: 69.6 to 72.6%
CC50 at 48 h [2]: 43.2 µM
CC50 at 48 h [9]: 47.3 µM
logP at 4 h [13]: > 5

inhibition [6]: inactive
SMILES: O=C1C(c2ccc(F)cc2)=C(c2ccc(OCCCS(=O)(=O)O)cc2)C(=O)N1CCC(O)(c1ccccc1)c1ccccc1

SMILES: CCc1ccc(S(=O)(=O)NCCN2C(=O)C(c3ccc(O)cc3)=C(c3ccc(F)cc3)C2=O)cc1
CC50 at 48 h [2]: > 100 µM
inhibition [6]: Active
CC50 at 48 h [9]: 80.4 µM
logP at 4 h [13]: 2 to 4
